Legend:
[1] = system: GLXMAW (Soybean, Williams); experiment: Preemergence herbicidal evaluation; type: in vivo, Glycine max, (L.) Merr. cv Williams; conditions: rated 4-5 weeks after treatment
Procedure, shortened: (§1)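 Scores use a 0–9 visual scale covering stand, vigor, malformation, size and chlorosis relative to controls, rated four to five weeks after treatment. Before emergence, soil-planted seeds were sprayed with compound in aqueous acetone at roughly 0.0156–0.500 kg/ha and held in the greenhouse.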

ORYSAT (Rice, Tebonnet) [2] = experiment: Rice tolerance to post-transplant applications, flooded paddy conditions (Table IV); type: in vivo, Oryza sativa, (L.) Tebonnet
Procedure, shortened: (§2)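 Injury ratings (0–9 scale covering stand, vigor, malformation, size, chlorosis and overall appearance versus control) were made three to four weeks after treatment. Test material, about 0.0313 to 0.500 kg/ha a.i. in 50/50 v/v aqueous/acetone, was added to flood water 1.5 to 3 cm deep over 3 to 5 cm weeds and 1.5 to 2.5 leaf rice.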

ZEAMX (Corn, Field) = experiment: Postemergence herbicidal evaluation; type: in vivo, Zea mays; conditions: for ZEAMX herbicidal rating: postemergence
Procedure, shortened: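 Compound is applied as a foliar spray to seedlings about two weeks old, formulated in equal parts acetone and water with 0.5% TWEEN 20 and delivered at 40 psi to give about 0.0156–0.500 kg per hectare. Injury is rated visually 0–9 after four to five weeks.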

MOOVA (Monochoria) = experiment: Postemergence weed control under flooded paddy conditions; type: in vivo, Monochoria vaginalis; conditions: postemergence weeds, 3-4 weeks after treatment
Procedure, shortened: as §2

ORYSAT (Rice, Tebonnet) [3] = experiment: Rice tolerance to post-transplant applications, flooded paddy conditions (Table III); type: in vivo, Oryza sativa, (L.) Tebonnet
Protocol: Results of herbicide evaluation are expressed on a rating scale (0-9). The scale is based upon a visual observation of plant stand, vigor, malformation, size, chlorosis and overall plant appearance as compared with a control.
The tolerance of transplanted rice to post-transplanted herbicide applications is determined as follows: two ten-day-old rice seedlings (cv. Tebonnet) are transplanted into silt loam soil in 32 oz. plastic containers with a diameter of 10.5 cm and no drainage holes. After transplanting, the containers are flooded and the water level is maintained at 1.5 to 3 cm above the soil surface. Three days after transplanting, the flooded soil surface of the containers is treated with the selected aqueous/acetone 50/50 v/v mixture containing the test compounds to provide the equivalent of about 0.0313 to 0.500 kg/ha of active ingredient. The treated containers are placed on greenhouse benches, watered such that the water level is maintained as stated above, and cared for in accordance with conventional greenhouse procedures. Three to four weeks after treatment, the test is terminated and each container is examined and herbicidal effect rated according to the rating system provided in Example 37. The compounds evaluated are reported by compound number given in Example 37.
Plant species employed in this example are reported by header abbreviation, common name and scientific name.

ABUTH (Velvetleaf) = experiment: Preemergence herbicidal evaluation; type: in vivo, Abutilon theophrasti; conditions: rated 4-5 weeks after treatment
Procedure, shortened: as §1

[4] = system: SAGPY (Arrowhead (Pygmaea)); experiment: Postemergence weed control under flooded paddy conditions; type: in vivo, Sagittaria pygmaea; conditions: postemergence weeds, 3-4 weeks after treatment
Procedure, shortened: as §2

AMBEL (Ragweed, Common) = experiment: Preemergence herbicidal evaluation; type: in vivo, Ambrosia artemisifolia; conditions: rated 4-5 weeks after treatment
Procedure, shortened: as §1

Compound	GLXMAW preemergence herbicidal rating ([1]; rate 0.1250 kg/ha)	GLXMAW preemergence herbicidal rating ([1]; rate 0.2500 kg/ha)	Herbicidal rating ORYSAT (rice tolerance) (ORYSAT (Rice, Tebonnet) [2]; in vivo)	Herbicidal rating ORYSAT (rice tolerance) (ORYSAT (Rice, Tebonnet) [3]; in vivo)	Preemergence herbicidal rating GLXMAW ([1]; rate 0.0313 kg/ha)	Preemergence herbicidal rating GLXMAW ([1]; rate 0.0625 kg/ha)	Preemergence herbicidal rating GLXMAW ([1]; rate 0.1250 kg/ha)	Preemergence herbicidal rating GLXMAW ([1]; rate 0.2500 kg/ha)	Postemergence herbicidal rating ZEAMX (ZEAMX (Corn, Field); Rate 0.0158 kg/ha)	Preemergence herbicidal rating ABUTH (ABUTH (Velvetleaf); rate 0.0313 kg/ha)	Preemergence herbicidal rating ABUTH (ABUTH (Velvetleaf); rate 0.0625 kg/ha)	Preemergence herbicidal rating ABUTH (ABUTH (Velvetleaf); rate 0.1250 kg/ha)	Preemergence herbicidal rating ABUTH (ABUTH (Velvetleaf); rate 0.2500 kg/ha)	Herbicidal rating SAGPY ([4]; rate 0.1250 kg/ha)	Herbicidal rating SAGPY ([4]; rate 0.2500 kg/ha)	Preemergence herbicidal rating AMBEL (AMBEL (Ragweed, Common); rate 0.0313 kg/ha)	Preemergence herbicidal rating AMBEL (AMBEL (Ragweed, Common); rate 0.0625 kg/ha)	Preemergence herbicidal rating AMBEL (AMBEL (Ragweed, Common); rate 0.1250 kg/ha)	Preemergence herbicidal rating AMBEL (AMBEL (Ragweed, Common); rate 0.2500 kg/ha)	Herbicidal rating MOOVA (MOOVA (Monochoria); rate 0.2500 kg/ha)	other results
CCOC(=O)CN1C(=O)C(=C(C)C)S/C1=N/c1cc(-n2c(=O)cc(C(F)(F)F)n(C)c2=O)c(F)cc1Cl [Compound 20, Ethyl 2-{{2-chloro-5-[3,6-dihydro-3-methyl-2,6-dioxo-4-(trifluoromethyl)-1(2H)-pyrimidinyl]-4-fluorophenyl}imino}-5-isopropylidene-4-oxo-3-thiazolidineacetate]	0.0	4.0	2.0	2.0	–	–	–	–	–	–	–	–	–	–	–	–	–	–	–	–	GLXMAW preemergence herbicidal rating ([1]; rate 0.0625 kg/ha): 0.0; ZEAMX herbicidal rating (ZEAMX (Corn, Field); rate 0.0158 kg/ha): 4.5; ZEAMX herbicidal rating (ZEAMX (Corn, Field); rate 0.0315 kg/ha): 5.0; ZEAMX herbicidal rating (ZEAMX (Corn, Field); rate 0.0630 kg/ha): 5.5; Herbicidal rating MOOVA (MOOVA (Monochoria); rate 0.1160 kg/ha): 9.0; Herbicidal rating MOOVA (MOOVA (Monochoria); rate 0.2310 kg/ha): 9.0; Herbicidal rating MOOVA (MOOVA (Monochoria); rate 0.4630 kg/ha): 9.0; ABUTH preemergence herbicidal rating (ABUTH (Velvetleaf); rate 0.0625 kg/ha): 0.0; ABUTH preemergence herbicidal rating (ABUTH (Velvetleaf); rate 0.1250 kg/ha): 9.0; ABUTH preemergence herbicidal rating (ABUTH (Velvetleaf); rate 0.2500 kg/ha): 9.0; Herbicidal rating SAGPY ([4]; rate 0.1160 kg/ha): 0.0; Herbicidal rating SAGPY ([4]; rate 0.2310 kg/ha): 0.0; Herbicidal rating SAGPY ([4]; rate 0.4630 kg/ha): 3.0; AMBEL preemergence herbicidal rating (AMBEL (Ragweed, Common); rate 0.0625 kg/ha): 0.0; AMBEL preemergence herbicidal rating (AMBEL (Ragweed, Common); rate 0.1250 kg/ha): 0.0; AMBEL preemergence herbicidal rating (AMBEL (Ragweed, Common); rate 0.2500 kg/ha): 3.0
CCOC(=O)CN1C(=O)C(=C2CCCC2)SC1=Nc1cc(-n2c(=O)cc(C(F)(F)F)n(C)c2=O)c(F)cc1Cl [Compound 18, Ethyl 2-{{2-chloro-5-[3,6-dihydro-3-methyl-2,6-dioxo-4-(trifluoromethyl)-1(2H)-pyrimidinyl]-4-fluorophenyl}imino}-5-cyclopentylidene-4-oxo-3-thiazolidineacetate]	0.0	3.0	3.0	3.0	–	–	–	–	–	–	–	–	–	–	–	–	–	–	–	–	ZEAMX herbicidal rating (ZEAMX (Corn, Field); rate 0.0158 kg/ha): 4.0; ZEAMX herbicidal rating (ZEAMX (Corn, Field); rate 0.0315 kg/ha): 4.5; ZEAMX herbicidal rating (ZEAMX (Corn, Field); rate 0.0630 kg/ha): 4.0; Herbicidal rating MOOVA (MOOVA (Monochoria); rate 0.1160 kg/ha): 9.0; Herbicidal rating MOOVA (MOOVA (Monochoria); rate 0.2310 kg/ha): 9.0; Herbicidal rating MOOVA (MOOVA (Monochoria); rate 0.4630 kg/ha): 9.0; ABUTH preemergence herbicidal rating (ABUTH (Velvetleaf); rate 0.1250 kg/ha): 2.0; ABUTH preemergence herbicidal rating (ABUTH (Velvetleaf); rate 0.2500 kg/ha): 9.0; Herbicidal rating SAGPY ([4]; rate 0.1160 kg/ha): 0.0; Herbicidal rating SAGPY ([4]; rate 0.2310 kg/ha): 0.0; Herbicidal rating SAGPY ([4]; rate 0.4630 kg/ha): 6.0; AMBEL preemergence herbicidal rating (AMBEL (Ragweed, Common); rate 0.1250 kg/ha): 1.0; AMBEL preemergence herbicidal rating (AMBEL (Ragweed, Common); rate 0.2500 kg/ha): 4.0
CCOC(=O)CCN1C(=O)CSC1=Nc1cc(-n2c(=O)cc(C(F)(F)F)n(C)c2=O)c(Cl)cc1Cl [Compound 32, Ethyl 2-{{2,4-dichloro-5-[3,6-dihydro-3-methyl-2,6-dioxo-4-(trifluoromethyl)-1(2H)-pyrimidinyl]-phenyl}imino}-4-oxo-3-thiazolidinepropionate]	–	–	0.0	0.0	0.5	0.5	0.5	1.0	4.0	2.5	1.5	9.0	9.0	0.0	0.0	0.5	0.5	0.5	5.5	–	Preemergence herbicidal rating GLXMAW ([1]; rate 0.0156 kg/ha): 0.0; Preemergence herbicidal rating GLXMAW ([1]; rate 0.5000 kg/ha): 3.0; Postemergence herbicidal rating ZEAMX (ZEAMX (Corn, Field); Rate 0.0313 kg/ha): 6.0; Postemergence herbicidal rating ZEAMX (ZEAMX (Corn, Field); Rate 0.0625 kg/ha): 7.0; Postemergence herbicidal rating ZEAMX (ZEAMX (Corn, Field); Rate 0.1250 kg/ha): 7.0; Preemergence herbicidal rating ABUTH (ABUTH (Velvetleaf); rate 0.0156 kg/ha): 0.0; Preemergence herbicidal rating ABUTH (ABUTH (Velvetleaf); rate 0.5000 kg/ha): 9.0; Preemergence herbicidal rating AMBEL (AMBEL (Ragweed, Common); rate 0.0156 kg/ha): 0.0; Preemergence herbicidal rating AMBEL (AMBEL (Ragweed, Common); rate 0.5000 kg/ha): 9.0
Cn1c(C(F)(F)F)cc(=O)n(-c2cc(/N=C3/SCC(=O)N3CC(=O)O)c(Cl)cc2F)c1=O [Compound 52, 2-{{2-Chloro-5-[3,6-dihydro-3-methyl-2,6-dioxo-4-(trifluoromethyl)-1(2H)-pyrimidinyl]-4-fluoro-phenyl}imino}-4-oxo-3-thiazolidineacetic acid]	–	–	0.0	0.0	0.0	1.0	1.0	2.0	5.0	9.0	9.0	9.0	9.0	–	0.0	0.0	0.0	2.0	3.0	4.0	Postemergence herbicidal rating ZEAMX (ZEAMX (Corn, Field); Rate 0.0315 kg/ha): 7.5; Postemergence herbicidal rating ZEAMX (ZEAMX (Corn, Field); Rate 0.0630 kg/ha): 7.0
Cn1c(C(F)(F)F)cc(=O)n(-c2cc(N=C3SCC(=O)N3CCC(=O)O)c(Cl)cc2F)c1=O [Compound 31, 2-{{2-Chloro-5-[3,6-dihydro-3-methyl-2,6-dioxo-4-(trifluoromethyl)-1(2H)-pyrimidinyl]-4-fluoro-phenyl}imino}-4-oxo-3-thiazolidinepropionic acid]	–	–	0.0	0.0	–	3.0	5.0	6.0	7.0	–	0.0	9.0	9.0	0.0	0.0	–	0.0	4.0	9.0	2.5	Postemergence herbicidal rating ZEAMX (ZEAMX (Corn, Field); Rate 0.0315 kg/ha): 7.5; Postemergence herbicidal rating ZEAMX (ZEAMX (Corn, Field); Rate 0.0630 kg/ha): 8.0; Herbicidal rating MOOVA (MOOVA (Monochoria); rate 0.0625 kg/ha): 0.0; Herbicidal rating MOOVA (MOOVA (Monochoria); rate 0.1250 kg/ha): 0.0; Herbicidal rating SAGPY ([4]; rate 0.0625 kg/ha): 0.0
O=C(O)CC1SC(=Nc2cc(N3C(=O)C4=C(CCCC4)C3=O)c(F)cc2Cl)N(CC(=O)O)C1=O (centres unmarked) [Compound 48, 2-{[2-Chloro-5-(1-cyclohexene-1,2-dicarboximido)-4-fluorophenyl]imino}-4-oxo-3,5-thiazolidinediacetic acid]	–	–	–	–	0.0	0.0	0.0	2.0	–	0.0	4.0	9.0	9.0	3.0	6.0	0.0	0.0	0.0	4.0	6.0	Preemergence herbicidal rating GLXMAW ([1]; rate 0.0156 kg/ha): 0.0; Herbicidal rating ORYSAT (rice tolerance) (ORYSAT (Rice, Tebonnet) [2]; rate 0.1250 kg/ha, flooded paddy, post-transplant rice, 3-4 weeks after treatment): 4.0; Herbicidal rating ORYSAT (rice tolerance) (ORYSAT (Rice, Tebonnet) [2]; rate 0.2500 kg/ha, flooded paddy, post-transplant rice, 3-4 weeks after treatment): 6.0; Postemergence herbicidal rating ZEAMX (ZEAMX (Corn, Field); Rate 0.0156 kg/ha): 5.5; Postemergence herbicidal rating ZEAMX (ZEAMX (Corn, Field); Rate 0.0313 kg/ha): 5.5; Postemergence herbicidal rating ZEAMX (ZEAMX (Corn, Field); Rate 0.0625 kg/ha): 6.5; Herbicidal rating MOOVA (MOOVA (Monochoria); rate 0.1250 kg/ha): 3.0; Herbicidal rating ORYSAT (rice tolerance) (ORYSAT (Rice, Tebonnet) [3]; 0.1250 kg/ha, post-transplant rice, flooded paddy, rated 3-4 weeks after treatment): 4.0; Herbicidal rating ORYSAT (rice tolerance) (ORYSAT (Rice, Tebonnet) [3]; 0.2500 kg/ha, post-transplant rice, flooded paddy, rated 3-4 weeks after treatment): 6.0; Preemergence herbicidal rating ABUTH (ABUTH (Velvetleaf); rate 0.0156 kg/ha): 0.0; Preemergence herbicidal rating AMBEL (AMBEL (Ragweed, Common); rate 0.0156 kg/ha): 0.0

Reference: patent publication US20020137929A1, “1 - (3-heterocyclylphenyl) isothiourea, -isourea, -guanidine and -amidine herbicidal agents” (Intellectual Property Department, BASF Aktiengesellschaft, priority 1998, published 2002)
